Activity calls are given as the source filed them. The rule behind the calls is not given here.
What was measured:
Mus musculus [1] = experiment: Down regulation of phosphorylation of AKT at S129 residue expression in BALB/c SCID mouse xenogrfted with human MDA-MB-231 cells at 25 to 50 mg/kg, po administered once daily for 19 days by immunohistochemistry analysis; type: functional, organism-based; settings: dose lower […], dose upper 50.0 mg/kg, time 19.0 day
[2] = target: T1, Bromodomain testis-specific protein (Homo sapiens, UniProt Q58F21); experiment: Inhibition of BRDT BD1 (unknown origin) incubated for 2 hrs by TR-FRET assay
[3] = target: T1, Bromodomain testis-specific protein; experiment: Inhibition of BRDT BD2 (unknown origin) incubated for 2 hrs by TR-FRET assay
MDA-MB-468 [4] = experiment: Induction of autophagy in human MDA-MB-468 cells at 5 uM preincubated with 3-MA for 1 hr followed by compound addition and measured after 24 hrs by fluorescence microscopic analysis; type: functional, cell-based
MDA-MB-231 [5] = experiment: Induction of autophagy in human MDA-MB-231 cells at 5 uM preincubated with 3-MA for 1 hr followed by compound addition and measured after 24 hrs by fluorescence microscopic analysis; type: functional, cell-based
[6] = Half life in Sprague-Dawley rat at 1 mg/kg, iv by LC-MS analysis; type: ADME, organism-based; settings: in vivo
MCF-10A = experiment: Antiproliferative activity against human MCF-10A cells incubated for 24 hrs by MTT assay; type: cell-based
[7] = Cmax in Sprague-Dawley rat at 1 mg/kg, iv by LC-MS analysis; type: ADME, organism-based; design: dose 1 mg/kg, route iv; settings: in vivo
Mus musculus [8] = experiment: Down regulation of c-Myc expression in BALB/c SCID mouse xenogrfted with human MDA-MB-231 cells at 25 to 50 mg/kg, po administered once daily for 19 days by Western blot analysis; type: functional, organism-based; settings: dose lower […], dose upper 50.0 mg/kg, time 19.0 day
[9] = Cmax in Sprague-Dawley rat at 10 mg/kg, po by LC-MS analysis; type: ADME, organism-based; design: dose 10 mg/kg, route po; settings: in vivo
MDA-MB-231 [10] = experiment: Antitumor activity against human MDA-MB-231 cells xenografted in nude BALB/c mouse assessed as tumor growth inhibition at 25 to 50 mg/kg, po administered once daily for 19 days and measured every 3 days by Ki-67 staining based immunohistochemical analysis; type: functional, organism-based; settings: dose lower […], dose upper 50.0 mg/kg, time 19.0 day
MDA-MB-468 [11] = experiment: Induction of apoptosis in human MDA-MB-468 cells assessed as up regulation of cleaved caspase 3 after 24 hrs by Western blot analysis; type: functional, cell-based; settings: dose 2.5-10 µM
[12] = Half life in Sprague-Dawley rat at 10 mg/kg, po by LC-MS analysis; type: ADME, organism-based; settings: in vivo
MDA-MB-231 [13] = experiment: Antitumor activity against human MDA-MB-231 cells xenografted in po dosed nude BALB/c mouse assessed as tumor growth inhibition administered once daily for 19 days and measured every 3 days; type: functional, organism-based; settings: dose lower […], dose upper 50.0 mg/kg, time 19.0 day
[14] = target: T2, Bromodomain-containing protein 4 (Homo sapiens, UniProt O60885); experiment: Inhibition of BRD4 BD2 (unknown origin) incubated for 2 hrs by TR-FRET assay
Mus musculus [15] = experiment: Toxicity in nude BALB/c mouse xenografted with human MDA-MB-231 cells assessed as morphological changes in spleen at 25 to 50 mg/kg, po administered once daily for 19 days and measured every 3 days by H and E staining based assay; type: organism-based; settings: in vivo, 456 h, dose 25-50 mg/kg, time 19 day
MDA-MB-231 [16] = experiment: Inhibition of colony formation in human MDA-MB-231 cells after 7 days by crystal violet staining based assay; type: functional, cell-based; settings: dose 2.5-10 µM, time 7.0 day
[17] = target: Bromodomain-containing protein 3 (Homo sapiens, UniProt Q15059); experiment: Inhibition of BRD3 BD2 (unknown origin) incubated for 2 hrs by TR-FRET assay
MDA-MB-231 [18] = experiment: Induction of apoptosis in human MDA-MB-231 cells after 24 hrs by Annexin V-FITC/propidium iodide staining based flow cytometry; type: functional, cell-based; settings: dose 2.5-10 µM
Mus musculus [19] = experiment: Toxicity in nude BALB/c mouse xenografted with human MDA-MB-468 cells assessed as morphological changes in spleen at 25 to 50 mg/kg, po administered once daily for 19 days and measured every 3 days by H and E staining based assay; type: organism-based; settings: in vivo, 456 h, dose 25-50 mg/kg, time 19 day
MDA-MB-231 [20] = experiment: Inhibition of colony formation in human MDA-MB-231 cells at 5 uM after 7 days in presence of 3-MA by crystal violet staining based assay; type: functional, cell-based; settings: time 7.0 day
MDA-MB-231 [21] = experiment: Induction of autophagy in human MDA-MB-231 cells harboring GFP-mRFP-LC3 assessed as up regulation of beclin 1 level at 2.5 to 10 uM after 24 hrs by Western blot analysis; type: functional, cell-based; settings: dose 2.5-10 µM
Mus musculus [22] = experiment: Toxicity in nude BALB/c mouse xenografted with human MDA-MB-231 cells assessed as morphological changes in liver at 25 to 50 mg/kg, po administered once daily for 19 days and measured every 3 days by H and E staining based assay; type: organism-based; settings: in vivo, 456 h, dose 25-50 mg/kg, time 19 day
Mus musculus [23] = experiment: Toxicity in nude BALB/c mouse xenografted with human MDA-MB-468 cells assessed as morphological changes in liver at 25 to 50 mg/kg, po administered once daily for 19 days and measured every 3 days by H and E staining based assay; type: organism-based; settings: in vivo, 456 h, dose 25-50 mg/kg, time 19 day
[24] = target: T2, Bromodomain-containing protein 4; experiment: Inhibition of BRD4 BD1 (unknown origin) incubated for 2 hrs by TR-FRET assay
MDA-MB-468 [25] = experiment: Induction of apoptosis in human MDA-MB-468 cells after 24 hrs by Annexin V-FITC/propidium iodide staining based flow cytometry; type: functional, cell-based; settings: dose 2.5-10 µM
[26] = Oral bioavailability in Sprague-Dawley rat at 10 mg/kg by LC-MS analysis; type: ADME, organism-based; settings: in vivo
Mus musculus [27] = experiment: Toxicity in nude BALB/c mouse xenografted with human MDA-MB-468 cells assessed as change in body weight at 25 to 50 mg/kg, po administered once daily for 19 days and measured every 3 days; type: organism-based; settings: in vivo, 456 h, dose 25-50 mg/kg, time 19 day
Mus musculus [28] = experiment: Toxicity in nude BALB/c mouse xenografted with human MDA-MB-468 cells assessed as morphological changes in kidney at 25 to 50 mg/kg, po administered once daily for 19 days and measured every 3 days by H and E staining based assay; type: organism-based; settings: in vivo, 456 h, dose 25-50 mg/kg, time 19 day
Mus musculus [29] = experiment: Toxicity in nude BALB/c mouse xenografted with human MDA-MB-231 cells assessed as change in body weight at 25 to 50 mg/kg, po administered once daily for 19 days and measured every 3 days; type: organism-based; settings: in vivo, 456 h, dose 25-50 mg/kg, time 19 day
Mus musculus [30] = experiment: Toxicity in nude BALB/c mouse xenografted with human MDA-MB-231 cells assessed as mortality at 25 to 50 mg/kg, po administered once daily for 19 days and measured every 3 days; type: organism-based; settings: in vivo, 456 h, dose 25-50 mg/kg, time 19 day
MDA-MB-468 [31] = experiment: Induction of autophagy in human MDA-MB-468 cells harboring GFP-mRFP-LC3 assessed as up regulation of beclin 1 level at 2.5 to 10 uM after 24 hrs by Western blot analysis; type: functional, cell-based; settings: dose 2.5-10 µM
[32] = target: T2, Bromodomain-containing protein 4; experiment: Inhibition of BRD4 BD1/BD2 (unknown origin) incubated for 2 hrs by TR-FRET assay
Mus musculus [33] = experiment: Toxicity in nude BALB/c mouse xenografted with human MDA-MB-231 cells assessed as morphological changes in kidney at 25 to 50 mg/kg, po administered once daily for 19 days and measured every 3 days by H and E staining based assay; type: organism-based; settings: in vivo, 456 h, dose 25-50 mg/kg, time 19 day
MDA-MB-468 [34] = experiment: Induction of apoptosis in human MDA-MB-468 cells assessed as down regulation of Bcl2 after 24 hrs by Western blot analysis; type: functional, cell-based; settings: dose 2.5-10 µM
[35] = target: Bromodomain-containing protein 2 (Homo sapiens, UniProt P25440); experiment: Inhibition of BRD2 BD2 (unknown origin) incubated for 2 hrs by TR-FRET assay
Sequence of Bromodomain-containing protein 2 (P25440 whole entry): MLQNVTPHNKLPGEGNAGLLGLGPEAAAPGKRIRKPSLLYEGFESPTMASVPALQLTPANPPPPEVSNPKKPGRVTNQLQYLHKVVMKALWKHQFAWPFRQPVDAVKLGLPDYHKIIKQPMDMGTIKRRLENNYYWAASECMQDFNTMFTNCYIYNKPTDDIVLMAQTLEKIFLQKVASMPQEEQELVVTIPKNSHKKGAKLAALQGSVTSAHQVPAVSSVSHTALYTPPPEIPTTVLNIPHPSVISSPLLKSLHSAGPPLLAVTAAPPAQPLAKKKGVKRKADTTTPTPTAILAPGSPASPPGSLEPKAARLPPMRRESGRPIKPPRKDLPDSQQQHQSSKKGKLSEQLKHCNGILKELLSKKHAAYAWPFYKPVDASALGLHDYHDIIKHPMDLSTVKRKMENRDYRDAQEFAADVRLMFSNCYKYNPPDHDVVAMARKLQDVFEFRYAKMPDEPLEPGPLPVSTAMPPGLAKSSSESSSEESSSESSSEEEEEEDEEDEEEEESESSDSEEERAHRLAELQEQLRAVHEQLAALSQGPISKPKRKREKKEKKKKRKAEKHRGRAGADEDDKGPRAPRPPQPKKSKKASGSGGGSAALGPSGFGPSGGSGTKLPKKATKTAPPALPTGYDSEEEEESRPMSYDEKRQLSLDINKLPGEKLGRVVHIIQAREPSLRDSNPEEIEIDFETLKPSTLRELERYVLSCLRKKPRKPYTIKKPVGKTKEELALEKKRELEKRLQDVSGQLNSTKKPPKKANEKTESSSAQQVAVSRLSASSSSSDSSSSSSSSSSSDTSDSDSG

Sequence of Bromodomain-containing protein 3 (Q15059 whole entry): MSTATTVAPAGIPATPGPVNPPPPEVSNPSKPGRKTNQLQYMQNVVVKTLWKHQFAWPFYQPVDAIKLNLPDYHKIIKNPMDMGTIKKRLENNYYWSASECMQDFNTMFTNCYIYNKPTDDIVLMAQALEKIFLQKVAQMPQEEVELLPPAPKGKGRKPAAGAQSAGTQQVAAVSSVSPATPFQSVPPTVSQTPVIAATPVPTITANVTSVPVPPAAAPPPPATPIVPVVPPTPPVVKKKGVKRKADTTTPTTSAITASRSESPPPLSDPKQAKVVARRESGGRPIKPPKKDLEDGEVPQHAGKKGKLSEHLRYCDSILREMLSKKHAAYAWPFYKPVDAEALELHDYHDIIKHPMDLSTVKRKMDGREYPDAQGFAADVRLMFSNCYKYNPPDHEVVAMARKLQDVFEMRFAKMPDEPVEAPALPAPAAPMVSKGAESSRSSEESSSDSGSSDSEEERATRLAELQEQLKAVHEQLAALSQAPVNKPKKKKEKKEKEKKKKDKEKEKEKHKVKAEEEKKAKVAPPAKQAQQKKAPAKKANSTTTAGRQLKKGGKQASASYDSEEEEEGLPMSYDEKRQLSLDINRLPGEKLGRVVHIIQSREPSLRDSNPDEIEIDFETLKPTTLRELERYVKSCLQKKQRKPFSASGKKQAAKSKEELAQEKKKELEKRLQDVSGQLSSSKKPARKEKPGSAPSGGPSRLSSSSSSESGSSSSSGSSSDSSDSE

## COc1cc(OC)c2c(=O)[nH]c(-c3ccc(OCC(=O)Nc4ccc(N5CCN(C)CC5)c(Cl)c4)cc3)nc2c1
Mus musculus [1]
  Activity: Active
[2]
  IC50: > 10 µM
[3]
  IC50: > 10 µM
MDA-MB-468 [4]
  Activity: inactive
MDA-MB-231 [5]
  Activity: inactive
[6]
  half-life: 4.21 h
MCF-10A
  Activity: Non-Toxic
[7]
  Cmax: 237 ng/mL
Mus musculus [8]
  Activity: Active
[9]
  Cmax: 206 ng/mL
MDA-MB-231 [10]
  Activity: Active
MDA-MB-468 [11]
  Activity: Dose-dependent effect
[12]
  half-life: 5.17 h
MDA-MB-231 [13]
  Activity: Active
[14]
  IC50: 0.098 µM
Mus musculus [15]
  Activity: Non-Toxic
MDA-MB-231 [16]
  inhibition: Dose-dependent effect
[17]
  IC50: > 10 µM
MDA-MB-231 [18]
  Activity: Dose-dependent effect
Mus musculus [19]
  Activity: Non-Toxic
MDA-MB-231 [20]
  inhibition: inactive
MDA-MB-231 [21]
  Activity: Active
Mus musculus [22]
  Activity: Non-Toxic
Mus musculus [23]
  Activity: Non-Toxic
[24]
  IC50: 0.193 µM
MDA-MB-468 [25]
  Activity: Dose-dependent effect
[26]
  F: 32.5%
Mus musculus [27]
  Activity: Non-Toxic
Mus musculus [28]
  Activity: Non-Toxic
Mus musculus [29]
  Activity: Non-Toxic
Mus musculus [30]
  Activity: Non-Toxic
MDA-MB-468 [31]
  Activity: Active
[32]
  IC50: 0.18 µM
Mus musculus [33]
  Activity: Non-Toxic
MDA-MB-468 [34]
  Activity: Dose-dependent effect
[35]
  IC50: 8.7 µM
